The values below come from patent US7507816B2, “Pharmaceutical preparations comprising substituted beta-aminoalcohols” (Gruenenthal GmbH, priority 2001, dated 2009).

This assay deals with T1, NA transporter (Rattus norvegicus, UniProt Q9WTR4).
T1 construct: synaptosomes were freshly isolated from rat brain regions; from tissue; host or cells: rat hypothalamus synaptosomes (P2 fraction)
T1 sequence (Q9WTR4 1-597): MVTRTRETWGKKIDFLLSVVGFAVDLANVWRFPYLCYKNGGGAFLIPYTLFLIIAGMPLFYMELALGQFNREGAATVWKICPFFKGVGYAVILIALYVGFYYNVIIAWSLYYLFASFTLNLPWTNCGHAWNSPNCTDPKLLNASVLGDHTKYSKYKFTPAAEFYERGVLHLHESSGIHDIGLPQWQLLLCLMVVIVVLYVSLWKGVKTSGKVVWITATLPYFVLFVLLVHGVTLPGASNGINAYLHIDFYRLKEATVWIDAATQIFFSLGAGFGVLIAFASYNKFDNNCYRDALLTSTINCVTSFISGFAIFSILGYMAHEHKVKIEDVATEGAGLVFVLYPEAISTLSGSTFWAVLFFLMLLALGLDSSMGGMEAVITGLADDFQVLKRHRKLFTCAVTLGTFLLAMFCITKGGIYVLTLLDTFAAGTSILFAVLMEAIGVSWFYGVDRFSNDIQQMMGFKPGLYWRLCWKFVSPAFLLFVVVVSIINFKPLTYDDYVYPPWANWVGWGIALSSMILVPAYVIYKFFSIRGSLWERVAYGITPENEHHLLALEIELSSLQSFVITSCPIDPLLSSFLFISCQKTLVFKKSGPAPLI
The experiment in a line: Noradrenaline reuptake inhibition (NA uptake inhibition) in rat brain synaptosomes. The class given is biochemical. To be noted: test concentration of 10^−5 M; synaptosomes (P2 fraction) from the hypothalamus of male rat brains. Here is the method: Investigations Relating to Noradrenaline Reuptake Inhibition (NA Uptake Inhibition)
The compounds according to the invention are NA uptake inhibitors. In order to be able to carry out these in vitro studies, synaptosomes were freshly isolated from rat brain regions. A so-called “P2” fraction was used, which was prepared according to the instructions given by Gray and Whittaker (E. G. Gray and V. P. Whittaker (1962) J. Anat. 76, 79-88). For NA uptake, these vesicular particles were isolated from the hypothalamus of male rat brains.
The following characteristics were determined for the NA transporter: NA uptake: Km=0.32±0.11 μM (In each case N=4, i.e. means±SEM from 4 independent series of tests, which were performed as parallel tests in triplicate).
A detailed description of the method may be found in the literature (M. Ch. Frink, H.-H. Hennies, W. Englberger, M. Haurand and B. Wilffert (1996) Arzneim.-Forsch./Drug Res. 46 (III), 11, 1029-1036). The NA uptake inhibition of selected compounds was determined. The values were determined at a test concentration of 10^−5 M.
Consider `OC1(c2cccc(Cl)c2Cl)CCCCCC1CN1CCCC1` (stereo not shown) [1-(2,3-Dichloro-phenyl)-2-pyrrolidin-1-ylmethyl-cycloheptanol], for which at 10 µM the inhibition was 63%.

For `OC1(c2cccc(Cl)c2Cl)CCCCC1CN1CCCC1` (stereo not shown) [1-(2,3-Dichloro-phenyl)-2-pyrrolidin-1-ylmethyl-cyclohexanol], the inhibition (in general, the relative decrease from the control value, in per cent) at 10 µM was 60%.

Take `OC1(c2cccc(Cl)c2Cl)CCCC1CN1CCCC1` (stereo not shown) [1-(2,3-Dichloro-phenyl)-2-pyrrolidin-1-ylmethyl-cyclopentanol]: at 10 µM the inhibition was 53%.

`OC1(c2ccc(Cl)cc2Cl)CCCCCC1CN1CCCC1` (stereo not shown) [1-(2,4-Dichloro-phenyl)-2-pyrrolidin-1-ylmethyl-cycloheptanol] registered an inhibition at 10 µM of 55%.

Consider `OC1(CCCc2ccccc2)CCCCCC1CN1CCCC1` (stereo not shown) [1-(3-Phenyl-propyl)-2-pyrrolidin-1-ylmethyl-cycloheptanol], for which the inhibition at 10 µM worked out at 63%.

Take `OC1(CCCc2ccccc2)CCCC1CN1CCCC1` (stereo not shown) [1-(3-Phenyl-propyl)-2-pyrrolidin-1-ylmethyl-cyclopentanol]: the inhibition at 10 µM amounted to 65%.

For the molecule `OC1(c2ccc(Cl)cc2)CCCC1CN1CCCC1` (stereo not shown) [1-(4-Chloro-phenyl)-2-pyrrolidin-1-ylmethyl-cyclopentanol], the “NA Uptake (% inhibition)” value is 68% and the inhibition at 10 µM is 75%.

For `Cc1cc(C2(O)CCCCCC2CN2CCCC2)ccc1F` (stereo not shown) [1-(4-Fluoro-3-methyl-phenyl)-2-pyrrolidin-1-ylmethyl-cycloheptanol], the inhibition at 10 µM is 83%.

As to `Cc1cc(C2(O)CCCC2CN2CCCC2)ccc1F` (stereo not shown) [1-(4-Fluoro-3-methyl-phenyl)-2-pyrrolidin-1-ylmethyl-cyclopentanol], testing at 10 µM gave an inhibition of 59%.

The molecule `OC1(c2ccc(F)cc2)CCCCCC1CN1CCCC1` (stereo not shown) [1-(4-Fluoro-phenyl)-2-pyrrolidin-1-ylmethyl-cycloheptanol] registered an inhibition at 10 µM of 57%.

Take `COc1ccc(C2(O)CCCCCC2CN2CCCC2)cc1` (stereo not shown) [1-(4-Methoxy-phenyl)-2-pyrrolidin-1-ylmethyl-cycloheptanol]: at 10 µM the inhibition was 69%.

`OC1(CCc2ccccc2)CCCCCC1CN1CCCC1` (stereo not shown) [1-Phenethyl-2-pyrrolidin-1-ylmethyl-cycloheptanol]: testing at 10 µM gave an inhibition of 82%.

For `OC1(CCc2ccccc2)CCCC1CN1CCCC1` (stereo not shown) [1-Phenethyl-2-pyrrolidin-1-ylmethyl-cyclopentanol], testing at 10 µM gave an inhibition of 59%.

On to `OC1(c2ccccc2)CCCCCC1CN1CCCC1` (stereo not shown) [1-Phenyl-2-pyrrolidin-1-ylmethyl-cycloheptanol], for which the inhibition at 10 µM stood at 56%.

Regarding `OC1(C#Cc2ccccc2)CCCC1CN1CCCC1` (stereo not shown) [1-Phenylethynyl-2-pyrrolidin-1-ylmethyl-cyclopentanol], the “NA Uptake (% inhibition)” value was 92%.

`OC1(CCCc2ccccc2)CCCCC1CN1CCCCCC1` (stereo not shown) [2-Azepan-1-ylmethyl-1-(3-phenyl-propyl)-cyclohexanol] registered an inhibition at 10 µM of 77%.

As to `OC1(CCCc2ccccc2)CCCC1CN1CCCCCC1` (stereo not shown) [2-Azepan-1-ylmethyl-1-(3-phenyl-propyl)-cyclopentanol], the inhibition at 10 µM worked out at 59%.

Consider `OC1(c2ccc(Cl)cc2)CCCC1CN1CCCCCC1` (stereo not shown) [2-Azepan-1-ylmethyl-1-(4-chloro-phenyl)-cyclopentanol], for which the inhibition at 10 µM worked out at 80%.

As to `Cc1cc(C2(O)CCCCCC2CN2CCCCCC2)ccc1F` (stereo not shown) [2-Azepan-1-ylmethyl-1-(4-fluoro-3-methyl-phenyl)-cycloheptanol], 10 µM produced 63% inhibition.

As for `Cc1cc(C2(O)CCCCC2CN2CCCCCC2)ccc1F` (stereo not shown) [2-Azepan-1-ylmethyl-1-(4-fluoro-3-methyl-phenyl)-cyclohexanol], the inhibition at 10 µM was found to be 54%.

`Cc1cc(C2(O)CCCC2CN2CCCCCC2)ccc1F` (stereo not shown) [2-Azepan-1-ylmethyl-1-(4-fluoro-3-methyl-phenyl)-cyclopentanol]: the inhibition at 10 µM came out at 73%.

As to `OC1(c2ccc(F)cc2)CCCCC1CN1CCCCCC1` (stereo not shown) [2-Azepan-1-ylmethyl-1-(4-fluoro-phenyl)-cyclohexanol], the inhibition at 10 µM worked out at 52%.

For the molecule `COc1ccc(C2(O)CCCCCC2CN2CCCCCC2)cc1` (stereo not shown) [2-Azepan-1-ylmethyl-1-(4-methoxy-phenyl)-cycloheptanol], the inhibition at 10 µM was 58%.

As for `COc1ccc(C2(O)CCCCC2CN2CCCCCC2)cc1` (stereo not shown) [2-Azepan-1-ylmethyl-1-(4-methoxy-phenyl)-cyclohexanol], at 10 µM the inhibition was 58%.

`COc1ccc(C2(O)CCCC2CN2CCCCCC2)cc1` (stereo not shown) [2-Azepan-1-ylmethyl-1-(4-methoxy-phenyl)-cyclopentanol] gave an inhibition at 10 µM of 58%.

As for `OC1(Cc2ccccc2)CCCCCC1CN1CCCCCC1` (stereo not shown) [2-Azepan-1-ylmethyl-1-benzyl-cycloheptanol], 10 µM produced 55% inhibition.

The molecule `Cc1cccc(C2(O)CCCC2CN2CCCCCC2)c1` (stereo not shown) [2-Azepan-1-ylmethyl-1-m-tolyl-cyclopentanol] had an inhibition at 10 µM of 59%.

In turn, `Cc1ccc(C2(O)CCCCCC2CN2CCCCCC2)cc1` (stereo not shown) [2-Azepan-1-ylmethyl-1-p-tolyl-cycloheptanol] returned an inhibition at 10 µM of 58%.

As to `Cc1ccc(C2(O)CCCCC2CN2CCCCCC2)cc1` (stereo not shown) [2-Azepan-1-ylmethyl-1-p-tolyl-cyclohexanol], testing at 10 µM gave an inhibition of 64%.

For the molecule `Cc1ccc(C2(O)CCCC2CN2CCCCCC2)cc1` (stereo not shown) [2-Azepan-1-ylmethyl-1-p-tolyl-cyclopentanol], the inhibition at 10 µM was 70%.

With `OC1(CCc2ccccc2)CCCCCC1CN1CCCCCC1` (stereo not shown) [2-Azepan-1-ylmethyl-1-phenethyl-cycloheptanol], the inhibition at 10 µM came to 87%.

The molecule `OC1(CCc2ccccc2)CCCCC1CN1CCCCCC1` (stereo not shown) [2-Azepan-1-ylmethyl-1-phenethyl-cyclohexanol] came in with an inhibition at 10 µM of 70%.

Regarding `OC1(CCc2ccccc2)CCCC1CN1CCCCCC1` (stereo not shown) [2-Azepan-1-ylmethyl-1-phenethyl-cyclopentanol], the inhibition at 10 µM stood at 92%.

Molecule `OC1(c2ccccc2)CCCCCC1CN1CCCCCC1` (stereo not shown) [2-Azepan-1-ylmethyl-1-phenyl-cycloheptanol] registered an inhibition at 10 µM of 52%.

`OC1(C#Cc2ccccc2)CCCC1CN1CCCCCC1` (stereo not shown) [2-Azepan-1-ylmethyl-1-phenylethynyl-cyclopentanol]: the “NA Uptake (% inhibition)” value came to 99%.

Consider `OC1(c2cccs2)CCCC1CN1CCCCCC1` (stereo not shown) [2-Azepan-1-ylmethyl-1-thiophen-2-yl-cyclopentanol], for which the inhibition at 10 µM stood at 51%.

Regarding `Cc1cccc(C2(O)CCCCCC2CN2CCCC2)c1` (stereo not shown) [2-Pyrrolidin-1-ylmethyl-1-m-tolyl-cycloheptanol], the inhibition at 10 µM turned out to be 67%.

`Cc1cccc(C2(O)CCCC2CN2CCCC2)c1` (stereo not shown) [2-Pyrrolidin-1-ylmethyl-1-m-tolyl-cyclopentanol] registered an inhibition at 10 µM of 52%.

Turning to `Cc1ccc(C2(O)CCCCCC2CN2CCCC2)cc1` (stereo not shown) [2-Pyrrolidin-1-ylmethyl-1-p-tolyl-cycloheptanol], the inhibition at 10 µM was found to be 76%.

`Cc1ccc(C2(O)CCCCC2CN2CCCC2)cc1` (stereo not shown) [2-Pyrrolidin-1-ylmethyl-1-p-tolyl-cyclohexanol] displayed an inhibition at 10 µM of 59%.

Molecule `Cc1ccc(C2(O)CCCC2CN2CCCC2)cc1` (stereo not shown) [2-Pyrrolidin-1-ylmethyl-1-p-tolyl-cyclopentanol] returned an inhibition at 10 µM of 78%.

For the molecule `CCC(O)(C#Cc1ccccc1)C(C)CN1CCCC1` (stereo not shown) [3-Ethyl-4-methyl-1-phenyl-5-pyrrolidin-1-yl-pent-1-yn-3-ol], the inhibition at 10 µM is 76%.
